Results taken from patent US20160235686A1, “PROCESSES FOR PREPARING A SOLID POLYMER MATRIX CONTAINING A CORE MATERIAL BY PRESSURE CYCLING OF SUPERCRITICAL FLUID” (priority 2013, published 2016).
Non-standard residues stand in square brackets, D forms with d. Residues, ends and D or L forms follow the SMILES beside them. *: point of attachment. dPhe(4-NHCONH2) = NC(=O)Nc1ccc(C[C@@H](N)C(=O)O)cc1; Dihydroorotyl(S) = O=C1C[C@@H](C(=O)*)NC(=O)N1; dPhe(4-Cl) = N[C@H](Cc1ccc(Cl)cc1)C(=O)O; Phe(4-NH2) = Nc1ccc(C[C@H](N)C(=O)O)cc1; d2Nal = N[C@H](Cc1ccc2ccccc2c1)C(=O)O; Lys(iPr) = CC(C)NCCCC[C@H](N)C(=O)O; d3Pal = N[C@H](Cc1cccnc1)C(=O)O

Test: In vitro release testing of degarelix from microparticles
Assay type: physicochemical
Details: effect of 10 pressure cycles vs no pressure cycling, manitol/acetate buffer pH 4, 37° C.
Procedure: In-vitro release of microparticles is conducted with a manitol/acetate buffer solution at pH 4. […] Each sample is analysed in triplicate.
A 25 mg sample is weighed out into a 25 mL volumetric flask. 1 mL of acetone is added to the volumetric flask to dissolve the microparticles. Once dissolved, the volumetric flask is topped up with water (approximately 24 mL), precipitating the polymer. A 1 mL sample of the supernatant is taken and centrifuged at 13000 rpm for 3 min. From this, a 200 μL sample is taken and analysed by HPLC. The loading determination method is carried out in triplicate and an average is taken.

CC(=O)N[C@H](Cc1ccc2ccccc2c1)C(=O)N[C@H](Cc1ccc(Cl)cc1)C(=O)N[C@H](Cc1cccnc1)C(=O)N[C@@H](CO)C(=O)N[C@@H](Cc1ccc(NC(=O)[C@@H]2CC(=O)NC(=O)N2)cc1)C(=O)N[C@H](Cc1ccc(NC(N)=O)cc1)C(=O)N[C@@H](CC(C)C)C(=O)N[C@@H](CCCCNC(C)C)C(=O)N1CCC[C@H]1C(=O)N[C@H](C)C(N)=O [degarelix] (Ac-[d2Nal][dPhe(4-Cl)][d3Pal]S[Phe(4-NH2)](Dihydroorotyl(S))[dPhe(4-NHCONH2)]L[Lys(iPr)]P[dA]-NH2)
decrease in the initial burst release of degarelix from the formulation (FIG. 1, PLGA formulation prepared with processing aid (DMSO)): approximately 15% | decrease in the initial burst release of degarelix from the formulation (FIG. 2, PLGA formulation prepared without a processing aid): approximately 3%
